Values quoted from earlier work in US12599598B2, “Osmotic dosage forms comprising deutetrabenazine and methods of use thereof” (Auspex Pharmaceuticals, Inc., priority 2020, dated 2026).

Conditions: in vivo

[2H]C([2H])([2H])Oc1cc2c(cc1OC([2H])([2H])[2H])[C@H]1CC(=O)[C@H](CC(C)C)CN1CC2 [Deutetrabenazine, (RR,SS)-1,3,4,6,7,11b-hexahydro-9,10-di(methoxy-d3)-3-(2-methylpropyl)-2H-benzo[a]quinolizin-2-one]
half-life of its active metabolites, relative to tetrabenazine: increased half-life
